According to patent US7049396B2, “Synthetic peptides that inhibit leukocyte superoxide anion production and/or attract leukocytes” (priority 1995, dated 2006):
Converted amounts (≈) assume the structure as drawn. Where a SMILES comes first, the peptide text is derived from it.

Key:
E. coli, ATCC 25922 = assay: Gel-overlay antibacterial assay; assay type: cell-based, Escherichia coli; details: 10 μg peptide per lane, AU-PAGE gel overlaid with E. coli, 18 hr
E. coli, ATTC 25922 = assay: Lawn-spotting antibacterial assay (E. coli); assay type: cell-based, Escherichia coli; details: 5 μl spotted, inactive segments up to 1 mg/ml
[1] = test system: S. typhimurium, KSU isolate 7; assay: Lawn-spotting antibacterial assay (S. typhimurium); assay type: cell-based, Salmonella typhimurium; details: 5 μl spotted, inactive segments up to 1 mg/ml
Escherichia coli, 25922 = assay: MIC/MBC microdilution broth method; assay type: cell-based; details: Escherichia coli
Method: (§1) Plates were incubated at 37° C. for 18 hr. […] Viable bacteria were counted. Tests were repeated on three different days. […] The results were expressed as the mean ± standard deviation. […] S. choleraesuis, ATCC 6962 was used in this experiment. […] Slides were stained with LeukoStat solutions (Fisher, Pittsburgh, Pa.). […] At least 200 neutrophils were examined. […] Tests were repeated on three different days. Results were expressed as the mean±standard deviation.

Salmonella typhimurium = assay: MIC/MBC microdilution broth method; assay type: cell-based; details: Salmonella typhimurium
Method: as §1

Staphylococcus aureus = assay: MIC/MBC microdilution broth method; assay type: cell-based; details: Staphylococcus aureus
Method: as §1

Streptococcus suis = assay: MIC/MBC microdilution broth method; assay type: cell-based; details: Streptococcus suis
Method: as §1

[2] = test system: rat intestinal epithelial cell line, IEC-6; assay type: cell-based
Method: Influence of PR-26 and PR-39 on intestinal epithelial cells. A nonradioactive assay based on the cellular conversion by viable cells of a tetrazolium salt into a blue formazan product was used to determine if PR-26 or PR-39 were toxic to intestinal epithelial cells. Ninety-six-well microtiter plates were seeded with the rat intestinal epithelial cell line, IEC-6, (5×10^4 cells/well) in DMEM containing 10% fetal bovine serum, 1% antibiotic/antimycotic, and […], and incubated at 37° C. for three days to achieve confluency. […] Well contents then were aspirated and monolayers were washed with medium. Medium (100 μl) and 15 μl of dye solution (Promega, Madison, Wis.) were added to each well and plates were incubated for 4 hr. at 37° C. Solubilization buffer (100 μl, Promega, Madison, Wis.) was added to each well and plates were incubated overnight to allow solubilization of the formazan crystals. Absorbance then was read at 570 nm using a microplate reader.

[3] = target: T1, cell-free NADPH oxidase (human neutrophil cytosol and membranes) (Homo sapiens, UniProt P14598); assay: Cell-free O2- production assay; assay type: biochemical
T1 construct: 10^6 cell equivalents of human neutrophil cytosol; from tissue; host or cells: human peripheral blood neutrophils (cytosol and deoxycholate-solubilized membranes)
T1 sequence (P14598 1-390): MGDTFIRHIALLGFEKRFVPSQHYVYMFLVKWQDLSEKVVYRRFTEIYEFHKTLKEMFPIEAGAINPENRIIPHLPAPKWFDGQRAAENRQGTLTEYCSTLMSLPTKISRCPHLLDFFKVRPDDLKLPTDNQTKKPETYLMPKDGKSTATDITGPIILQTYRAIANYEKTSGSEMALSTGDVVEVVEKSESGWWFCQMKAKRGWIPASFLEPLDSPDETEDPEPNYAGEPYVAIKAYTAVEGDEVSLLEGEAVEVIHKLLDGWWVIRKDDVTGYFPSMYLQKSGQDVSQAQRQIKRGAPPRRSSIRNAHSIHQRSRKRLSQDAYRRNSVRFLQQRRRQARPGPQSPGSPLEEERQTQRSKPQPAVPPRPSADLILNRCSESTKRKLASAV
Method: Reactions (100 μl) contained 10^6 cell equivalents of human neutrophil cytosol and 5×10^5 cell equivalents of deoxycholate-solubilized membranes prepared from human peripheral blood neutrophils. […] Control reactions contained 5 μg of superoxide dismutase. Superoxide anion generation was calculated based on superoxide dismutase-inhibitable changes in cytochrome c absorbance observed at 551 nm. The reactions were followed for 20 min. after addition of arachidonic acid, with absorbance readings taken at 1-min. intervals. […] Determinations were based on reactions performed in duplicate. • (ii) Binding assays. Neutrophils were disrupted by sonication, and unbroken cells, debris, and granules were removed by centrifuigation (13,000×g for 60 min.). Cytosol fractions were prepared by centrifugation (100,000 g for 45 min.) of the supernatants to remove residual membranes. Cytosolic proteins (15 μg in reducing buffer) were separated on a 7.5% SDS PAGE gel, transferred to PVDF membranes, and probed with biotinylated PR-39 (0.3 μM) for 2 hr. Binding between PR-39 and cytosolic proteins were visualized by a chemiluminescent streptavidin alkaline phosphatase system using an Epson scanner (Torrance, Calif.) and the NIH Image program. PR-39 was labeled with biotin hydrazide at the carboxy-terminus (Pierce Chemical Co., Rockford, Ill.) and purified by gel filtration chromatography.

[4] = target: 47 kDa neutrophil cytosol protein (Homo sapiens, UniProt P14598); assay: Ligand-blot binding assay with biotinylated PR-39, human cytosol; details: biotinylated PR-39 probe
recombinant p47^phox = recombinant p47^phox (Homo sapiens, UniProt P14598); assay: Competitive ligand-blot binding assay
Method: Competitive ligand-blot assays were performed by incubating recombinant p47^phox (0.02 μM) with or without various concentrations (0.006, 0.06, and 0.6 μM) of PR-39 for 1 hr. at 37° C. and then with biotinylated PR-39 (0.06 μM) for an additional 1 hr. at 37° C. The solutions were dialyzed against ddH2O for 1 hr. at 4° C. before blotting to nitrocellulose (5 μl) and detection with a streptavidin alkaline-phosphatase detection system as described above.

CC[C@H](C)[C@H](NC(=O)[C@H](CCCNC(=N)N)NC(=O)[C@@H]1CCCN1C(=O)[C@@H]1CCCN1C(=O)[C@H](CC(C)C)NC(=O)[C@H](CCCNC(=N)N)NC(=O)[C@@H]1CCCN1C(=O)[C@@H]1CCCN1C(=O)[C@H](Cc1ccccc1)NC(=O)[C@H](Cc1ccccc1)NC(=O)[C@@H]1CCCN1C(=O)[C@@H]1CCCN1C(=O)[C@@H]1CCCN1C(=O)[C@H](CCCNC(=N)N)NC(=O)[C@@H]1CCCN1C(=O)[C@H](CCCNC(=N)N)NC(=O)[C@@H]1CCCN1C(=O)[C@H](CC(C)C)NC(=O)[C@H](Cc1ccc(O)cc1)NC(=O)[C@@H]1CCCN1C(=O)[C@@H]1CCCN1C(=O)[C@H](CCCNC(=N)N)NC(=O)[C@@H]1CCCN1C(=O)[C@H](CCCNC(=N)N)NC(=O)[C@H](CCCNC(=N)N)NC(=O)[C@@H](N)CCCNC(=N)N)C(=O)N1CCC[C@H]1C(=O)N1CCC[C@H]1C(=O)NCC(=O)N[C@@H](Cc1ccccc1)C(=O)N1CCC[C@H]1C(=O)N1CCC[C@H]1C(=O)N[C@@H](CCCNC(=N)N)C(=O)N[C@@H](Cc1ccccc1)C(=O)N1CCC[C@H]1C(=O)N1CCC[C@H]1C(=O)N[C@@H](CCCNC(=N)N)C(=O)N[C@@H](Cc1ccccc1)C(=O)N1CCC[C@H]1C(=O)O [PR-39] (H-RRRPRPPYLPRPRPPPFFPPRLPPRIPPGFPPRFPPRFP-OH; N-terminus and C-terminus assumed)
antibacterial activity (clear zones on overlaid gel) (E. coli, ATCC 25922): antibacterial activity
antibacterial activity (clear zone on bacterial lawn) (E. coli, ATTC 25922): had antibacterial activity
antibacterial activity (clear zone on bacterial lawn) [1]: had antibacterial activity
MBC (Escherichia coli, 25922): 8 µM (≈ 37.8 µg/mL)
MIC (Escherichia coli, 25922): 4 µM (≈ 18.9 µg/mL)
MBC (Salmonella typhimurium): 4 µM (≈ 18.9 µg/mL)
MIC (Salmonella typhimurium): 4 µM (≈ 18.9 µg/mL)
MIC (Staphylococcus aureus): >250 µM
MBC (Streptococcus suis): >64 µM
MIC (Streptococcus suis): >64 µM
concentration at which cytotoxicity occurred [2]: 500 nM
IC50 [3]: ~2 µM
inhibition of O2- generation ([3]; cell-free assay, concentrations greater than 5 μM): completely inhibited
binding to 47 kDa cytosolic protein [4]: bound
inhibition of binding of biotinylated PR-39 to recombinant p47phox (recombinant p47^phox; tenfold excess of unlabeled peptide): completely blocked
inhibition of binding of biotinylated PR-39 to recombinant p47phox (recombinant p47^phox; unlabeled peptide 0.06 μM, equimolar to labeled): 90%
